The source of these data is publication PMC9329436, “Optimization of the 4-anilinoquin(az)oline scaffold as epidermal growth factor receptor (EGFR) inhibitors for chordoma utilizing a toxicology profiling assay platform” (Scientific Reports, 2022).

Read-outs that look alike come from different tables or passages of the source.

What all share (assay type): biochemical
For assay [1], the target named is 320 wild-type protein kinases (Homo sapiens, UniProt P06241). Conditions: FYN, singlicate. The source says: (§1) Table S4. Profiling of two compounds at two concentrations against 320 wild-type protein kinases; singlicate measurement; Residual activities (% of control).
320 wild-type protein kinases (Homo sapiens, UniProt P06241), sequence (P06241 whole entry): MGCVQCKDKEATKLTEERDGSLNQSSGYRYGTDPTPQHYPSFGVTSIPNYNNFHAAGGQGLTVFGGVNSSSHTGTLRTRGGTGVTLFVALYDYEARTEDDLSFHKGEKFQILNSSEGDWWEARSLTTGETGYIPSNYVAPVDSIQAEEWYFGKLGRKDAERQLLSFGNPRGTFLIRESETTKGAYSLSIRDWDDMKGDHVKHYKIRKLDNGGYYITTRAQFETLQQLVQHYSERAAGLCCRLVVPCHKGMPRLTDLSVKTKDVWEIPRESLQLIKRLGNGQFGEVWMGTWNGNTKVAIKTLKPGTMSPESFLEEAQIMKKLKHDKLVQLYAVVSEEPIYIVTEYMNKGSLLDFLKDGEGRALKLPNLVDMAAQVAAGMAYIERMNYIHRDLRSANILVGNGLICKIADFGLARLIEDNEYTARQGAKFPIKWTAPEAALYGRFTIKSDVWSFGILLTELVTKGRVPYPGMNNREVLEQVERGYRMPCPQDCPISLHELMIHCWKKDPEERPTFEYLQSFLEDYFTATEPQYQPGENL
Assay [2] has as its target 320 wild-type protein kinases (Homo sapiens, UniProt Q9UQM7). Conditions: CAMK2A, singlicate.
From the text: as §1

In assay [3] the target is 320 wild-type protein kinases (Homo sapiens, UniProt Q9UK32). The note with it: kinase RPS6KA6, singlicate.
320 wild-type protein kinases (Homo sapiens, UniProt Q9UK32), sequence (Q9UK32 whole entry): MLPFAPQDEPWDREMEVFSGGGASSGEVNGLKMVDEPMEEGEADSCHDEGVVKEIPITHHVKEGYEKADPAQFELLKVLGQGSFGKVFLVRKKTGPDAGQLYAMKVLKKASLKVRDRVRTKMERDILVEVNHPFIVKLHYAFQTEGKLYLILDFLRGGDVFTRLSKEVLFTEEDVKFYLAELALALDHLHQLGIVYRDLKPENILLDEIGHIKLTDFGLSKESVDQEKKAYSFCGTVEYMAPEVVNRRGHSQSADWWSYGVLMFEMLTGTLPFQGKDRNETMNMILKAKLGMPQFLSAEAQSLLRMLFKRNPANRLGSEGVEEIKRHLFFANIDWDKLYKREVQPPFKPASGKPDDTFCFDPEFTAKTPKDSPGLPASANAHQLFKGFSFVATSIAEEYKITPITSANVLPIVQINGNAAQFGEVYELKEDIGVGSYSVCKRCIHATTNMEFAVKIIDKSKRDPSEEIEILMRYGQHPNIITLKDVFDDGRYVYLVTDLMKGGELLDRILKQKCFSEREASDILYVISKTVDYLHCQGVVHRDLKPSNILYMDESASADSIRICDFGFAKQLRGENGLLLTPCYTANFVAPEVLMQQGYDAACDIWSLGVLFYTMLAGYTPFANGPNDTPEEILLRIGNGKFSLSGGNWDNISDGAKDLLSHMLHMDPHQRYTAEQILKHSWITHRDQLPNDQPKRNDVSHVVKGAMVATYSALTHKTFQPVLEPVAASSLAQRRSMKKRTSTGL
From the text: as §1

The target in assay [4] is 320 wild-type protein kinases (Homo sapiens, UniProt O75914). Conditions: singlicate.
320 wild-type protein kinases (Homo sapiens, UniProt O75914), sequence (O75914 whole entry): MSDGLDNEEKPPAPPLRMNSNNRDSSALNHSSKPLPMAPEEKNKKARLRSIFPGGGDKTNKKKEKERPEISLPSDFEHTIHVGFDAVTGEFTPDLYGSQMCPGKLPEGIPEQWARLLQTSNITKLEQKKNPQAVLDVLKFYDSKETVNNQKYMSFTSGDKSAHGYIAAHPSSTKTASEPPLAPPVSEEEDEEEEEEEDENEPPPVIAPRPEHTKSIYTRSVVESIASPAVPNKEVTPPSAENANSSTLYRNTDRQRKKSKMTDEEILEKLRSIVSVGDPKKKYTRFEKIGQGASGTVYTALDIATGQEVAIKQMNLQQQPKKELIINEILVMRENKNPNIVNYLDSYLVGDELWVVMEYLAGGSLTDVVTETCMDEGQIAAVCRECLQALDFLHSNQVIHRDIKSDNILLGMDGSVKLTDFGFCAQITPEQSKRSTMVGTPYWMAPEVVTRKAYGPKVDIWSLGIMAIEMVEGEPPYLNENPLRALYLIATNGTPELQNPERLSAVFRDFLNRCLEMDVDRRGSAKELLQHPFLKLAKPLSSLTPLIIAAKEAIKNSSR
From the text: as §1

Assay [5] addresses 320 wild-type protein kinases (Homo sapiens, UniProt Q15746). Conditions: MYLK, singlicate.
From the text: as §1

The target in assay [6] is T1, 320 wild-type protein kinases (Homo sapiens, UniProt P29320).
T1 sequence (P29320 21-983): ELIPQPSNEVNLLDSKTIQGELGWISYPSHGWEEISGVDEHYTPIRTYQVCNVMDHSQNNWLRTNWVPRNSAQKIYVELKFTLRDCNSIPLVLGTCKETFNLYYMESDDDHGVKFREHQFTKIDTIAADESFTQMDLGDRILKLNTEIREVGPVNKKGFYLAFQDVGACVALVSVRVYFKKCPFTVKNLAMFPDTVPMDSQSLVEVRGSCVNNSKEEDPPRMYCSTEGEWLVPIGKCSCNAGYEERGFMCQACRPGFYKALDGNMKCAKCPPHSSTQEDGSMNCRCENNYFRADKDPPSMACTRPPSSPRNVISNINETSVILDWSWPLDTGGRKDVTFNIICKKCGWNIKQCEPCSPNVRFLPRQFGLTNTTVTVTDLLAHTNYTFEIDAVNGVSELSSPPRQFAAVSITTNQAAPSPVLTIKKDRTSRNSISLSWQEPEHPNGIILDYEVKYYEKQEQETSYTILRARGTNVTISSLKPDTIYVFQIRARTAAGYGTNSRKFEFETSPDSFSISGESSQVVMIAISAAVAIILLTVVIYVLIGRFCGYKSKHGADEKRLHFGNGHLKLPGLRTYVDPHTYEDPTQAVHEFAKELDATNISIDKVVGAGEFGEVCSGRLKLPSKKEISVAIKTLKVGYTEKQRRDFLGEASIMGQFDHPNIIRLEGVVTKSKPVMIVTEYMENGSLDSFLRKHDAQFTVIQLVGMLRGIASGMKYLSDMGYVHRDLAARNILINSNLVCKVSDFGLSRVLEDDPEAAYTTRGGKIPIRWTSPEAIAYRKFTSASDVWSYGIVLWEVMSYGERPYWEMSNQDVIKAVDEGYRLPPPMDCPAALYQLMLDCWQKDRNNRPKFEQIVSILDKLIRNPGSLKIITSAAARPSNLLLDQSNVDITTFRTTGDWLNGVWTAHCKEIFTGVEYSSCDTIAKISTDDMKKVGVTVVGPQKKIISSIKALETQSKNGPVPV
The note with it: singlicate.
From the text: as §1

Assay [7] addresses 320 wild-type protein kinases (Homo sapiens, UniProt P23443). Conditions: kinase S6K, singlicate.
From the text: as §1

The target of assay [8] is T2, 320 wild-type protein kinases (Homo sapiens, UniProt Q96PY6).
T2 sequence (Q96PY6 1-1258): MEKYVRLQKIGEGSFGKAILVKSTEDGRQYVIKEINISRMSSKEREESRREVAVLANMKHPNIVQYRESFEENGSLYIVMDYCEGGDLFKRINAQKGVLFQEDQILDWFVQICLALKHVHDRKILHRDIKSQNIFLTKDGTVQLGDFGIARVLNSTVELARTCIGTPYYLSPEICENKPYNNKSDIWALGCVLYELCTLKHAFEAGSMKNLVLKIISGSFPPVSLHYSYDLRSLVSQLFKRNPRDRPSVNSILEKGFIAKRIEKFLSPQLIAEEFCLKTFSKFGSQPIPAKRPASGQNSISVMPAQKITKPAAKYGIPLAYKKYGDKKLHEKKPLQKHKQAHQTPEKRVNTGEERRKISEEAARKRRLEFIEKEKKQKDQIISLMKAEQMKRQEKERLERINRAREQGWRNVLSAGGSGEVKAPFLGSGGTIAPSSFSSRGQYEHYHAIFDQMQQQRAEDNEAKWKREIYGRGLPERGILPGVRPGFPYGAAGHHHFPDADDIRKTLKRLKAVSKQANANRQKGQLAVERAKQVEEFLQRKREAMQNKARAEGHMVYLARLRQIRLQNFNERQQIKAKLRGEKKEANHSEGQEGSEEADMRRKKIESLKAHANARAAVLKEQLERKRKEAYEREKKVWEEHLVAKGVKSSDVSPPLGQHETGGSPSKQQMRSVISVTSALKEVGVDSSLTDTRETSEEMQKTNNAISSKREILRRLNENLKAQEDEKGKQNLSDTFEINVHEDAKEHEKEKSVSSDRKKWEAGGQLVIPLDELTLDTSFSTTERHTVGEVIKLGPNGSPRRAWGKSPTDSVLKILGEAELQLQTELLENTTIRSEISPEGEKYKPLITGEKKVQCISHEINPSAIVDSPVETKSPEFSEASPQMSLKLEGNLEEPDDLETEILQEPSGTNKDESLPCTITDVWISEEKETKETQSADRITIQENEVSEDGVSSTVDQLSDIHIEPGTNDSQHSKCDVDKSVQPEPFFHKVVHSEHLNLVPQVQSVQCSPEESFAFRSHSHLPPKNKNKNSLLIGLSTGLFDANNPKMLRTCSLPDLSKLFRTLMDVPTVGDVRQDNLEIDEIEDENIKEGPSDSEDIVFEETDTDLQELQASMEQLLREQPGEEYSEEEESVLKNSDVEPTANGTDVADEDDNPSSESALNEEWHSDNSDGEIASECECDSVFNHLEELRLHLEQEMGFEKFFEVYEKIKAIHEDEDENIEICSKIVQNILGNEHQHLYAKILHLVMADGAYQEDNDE
The note with it: singlicate.
From the text: as §1

320 wild-type protein kinases (Homo sapiens, UniProt Q9UQM7), sequence (Q9UQM7 whole entry): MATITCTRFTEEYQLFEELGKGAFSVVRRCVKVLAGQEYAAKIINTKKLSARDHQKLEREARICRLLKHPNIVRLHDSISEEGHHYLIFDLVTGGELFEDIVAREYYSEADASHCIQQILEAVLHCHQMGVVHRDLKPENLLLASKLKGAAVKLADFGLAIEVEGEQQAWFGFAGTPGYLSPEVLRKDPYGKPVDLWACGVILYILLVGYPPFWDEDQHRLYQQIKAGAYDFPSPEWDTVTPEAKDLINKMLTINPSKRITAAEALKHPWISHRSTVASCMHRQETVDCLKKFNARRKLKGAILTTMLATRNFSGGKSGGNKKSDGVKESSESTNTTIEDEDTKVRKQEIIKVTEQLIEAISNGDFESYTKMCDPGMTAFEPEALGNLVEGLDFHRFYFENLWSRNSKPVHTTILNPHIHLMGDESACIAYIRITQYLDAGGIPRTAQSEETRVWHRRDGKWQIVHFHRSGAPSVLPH
320 wild-type protein kinases (Homo sapiens, UniProt P23443), sequence (P23443 whole entry): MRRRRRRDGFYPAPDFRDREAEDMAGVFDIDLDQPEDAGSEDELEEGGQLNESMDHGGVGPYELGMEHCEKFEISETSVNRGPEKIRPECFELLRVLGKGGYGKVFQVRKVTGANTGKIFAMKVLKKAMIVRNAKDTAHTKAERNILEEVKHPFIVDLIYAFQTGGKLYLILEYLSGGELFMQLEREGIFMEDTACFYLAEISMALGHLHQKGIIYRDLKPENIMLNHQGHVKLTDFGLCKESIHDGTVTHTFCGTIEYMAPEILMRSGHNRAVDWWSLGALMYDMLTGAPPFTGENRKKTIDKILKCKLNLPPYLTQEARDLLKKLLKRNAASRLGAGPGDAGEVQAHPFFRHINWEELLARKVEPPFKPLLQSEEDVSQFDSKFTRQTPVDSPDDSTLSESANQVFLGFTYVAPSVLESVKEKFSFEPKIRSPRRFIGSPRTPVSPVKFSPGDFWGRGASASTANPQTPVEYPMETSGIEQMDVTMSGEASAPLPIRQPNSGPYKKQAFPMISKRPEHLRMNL
320 wild-type protein kinases (Homo sapiens, UniProt Q15746), sequence (Q15746 whole entry): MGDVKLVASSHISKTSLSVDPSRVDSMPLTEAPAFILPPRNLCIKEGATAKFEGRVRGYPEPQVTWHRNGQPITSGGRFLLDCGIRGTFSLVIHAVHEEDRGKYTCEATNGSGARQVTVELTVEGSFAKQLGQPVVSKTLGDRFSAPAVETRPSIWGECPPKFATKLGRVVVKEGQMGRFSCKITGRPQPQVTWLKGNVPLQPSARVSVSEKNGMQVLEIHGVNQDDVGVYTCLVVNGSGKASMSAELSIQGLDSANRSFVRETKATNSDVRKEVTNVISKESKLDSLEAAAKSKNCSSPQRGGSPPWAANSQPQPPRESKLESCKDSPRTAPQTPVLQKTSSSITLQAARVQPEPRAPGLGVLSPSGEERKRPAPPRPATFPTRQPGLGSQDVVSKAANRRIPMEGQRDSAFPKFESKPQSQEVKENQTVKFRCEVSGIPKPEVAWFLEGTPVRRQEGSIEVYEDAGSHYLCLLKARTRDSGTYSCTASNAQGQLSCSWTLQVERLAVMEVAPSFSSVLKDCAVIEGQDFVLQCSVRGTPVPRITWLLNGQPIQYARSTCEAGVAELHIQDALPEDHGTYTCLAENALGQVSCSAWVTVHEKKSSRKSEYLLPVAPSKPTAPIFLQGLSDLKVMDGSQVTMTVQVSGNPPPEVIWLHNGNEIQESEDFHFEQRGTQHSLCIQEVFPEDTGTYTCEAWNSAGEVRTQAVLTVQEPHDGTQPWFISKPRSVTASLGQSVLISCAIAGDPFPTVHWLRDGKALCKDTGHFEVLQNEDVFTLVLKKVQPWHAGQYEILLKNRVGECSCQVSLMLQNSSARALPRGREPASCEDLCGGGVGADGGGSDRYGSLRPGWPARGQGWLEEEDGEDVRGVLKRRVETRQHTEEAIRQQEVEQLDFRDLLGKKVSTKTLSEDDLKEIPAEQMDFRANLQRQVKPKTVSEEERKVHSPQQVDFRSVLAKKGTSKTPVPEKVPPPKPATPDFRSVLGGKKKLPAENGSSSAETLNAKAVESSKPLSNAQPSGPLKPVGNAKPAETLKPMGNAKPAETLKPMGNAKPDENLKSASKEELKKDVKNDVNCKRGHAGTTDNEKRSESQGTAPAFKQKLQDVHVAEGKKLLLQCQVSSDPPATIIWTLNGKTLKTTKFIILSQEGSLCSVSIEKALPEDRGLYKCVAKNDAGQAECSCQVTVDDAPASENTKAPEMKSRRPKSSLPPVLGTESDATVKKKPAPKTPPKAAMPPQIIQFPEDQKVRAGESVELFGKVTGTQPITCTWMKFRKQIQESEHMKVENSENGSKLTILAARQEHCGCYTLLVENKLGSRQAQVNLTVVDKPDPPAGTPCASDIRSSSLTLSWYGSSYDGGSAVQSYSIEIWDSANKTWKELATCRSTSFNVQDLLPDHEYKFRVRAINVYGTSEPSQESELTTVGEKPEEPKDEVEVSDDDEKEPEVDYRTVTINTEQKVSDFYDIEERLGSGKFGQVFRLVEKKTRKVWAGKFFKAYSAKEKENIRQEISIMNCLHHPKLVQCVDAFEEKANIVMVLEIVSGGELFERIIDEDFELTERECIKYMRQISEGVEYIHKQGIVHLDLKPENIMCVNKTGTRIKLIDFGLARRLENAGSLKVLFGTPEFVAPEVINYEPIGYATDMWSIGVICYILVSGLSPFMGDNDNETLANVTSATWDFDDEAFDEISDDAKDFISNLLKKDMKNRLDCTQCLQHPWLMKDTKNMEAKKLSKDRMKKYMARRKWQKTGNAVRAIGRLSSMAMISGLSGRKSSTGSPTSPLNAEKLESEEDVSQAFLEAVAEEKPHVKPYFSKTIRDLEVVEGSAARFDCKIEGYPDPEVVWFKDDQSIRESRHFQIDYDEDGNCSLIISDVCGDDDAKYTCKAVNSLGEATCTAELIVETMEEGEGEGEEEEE

On to `C#Cc1cc(Nc2ncnc3cc(OC)c(OC)cc23)ccc1Cl` [Compound 45], for which the Residual activity is 76 % of control in assay [1] (1.0E-06 M); 110 % of control in assay [1] (1.0E-07 M); 101 % of control in assay [2] (1.0E-06 M); 104 % of control in assay [2] (1.0E-07 M); 92 % of control in assay [4] (PAK3, 1.0E-06 M); 98 % of control in assay [4] (PAK3, 1.0E-07 M). Moreover, the Residual activity is 71 % of control in assay [5] (1.0E-06 M); 92 % of control in assay [5] (1.0E-07 M); 111 % of control in assay [6] (EPHA3, 1.0E-06 M); 128 % of control in assay [6] (EPHA3, 1.0E-07 M); 89 % of control in assay [8] (NEK1, 1.0E-06 M); 89 % of control in assay [8] (NEK1, 1.0E-07 M). For the same compound, the figures for the “Residual activity, RPS6KA6” value in assay [3] (assay conc. 1.0E-06 M) and in assay [3] (assay conc. 1.0E-07 M) were 70 % of control and 93 % of control, respectively. Further, the results for the “Residual activity, S6K” value in assay [7] (assay conc. 1.0E-06 M) and in assay [7] (assay conc. 1.0E-07 M) were 121 % of control and 122 % of control, respectively.
For the compound `C#Cc1cc(Nc2ncnc3cc(I)ccc23)ccc1Cl` [Compound 41], the Residual activity in assay [1] (1.0E-06 M) is 101 % of control; in assay [1] (1.0E-07 M) it was 107 % of control; in assay [2] (1.0E-06 M) it was 93 % of control; in assay [2] (1.0E-07 M), 99 % of control; in assay [4] (PAK3, 1.0E-06 M), 75 % of control; in assay [4] (PAK3, 1.0E-07 M), 96 % of control. Moreover, the Residual activity is 58 % of control in assay [5] (1.0E-06 M); 98 % of control in assay [5] (1.0E-07 M); 119 % of control in assay [6] (EPHA3, 1.0E-06 M); 118 % of control in assay [6] (EPHA3, 1.0E-07 M); 82 % of control in assay [8] (NEK1, 1.0E-06 M); 86 % of control in assay [8] (NEK1, 1.0E-07 M). The entries for the “Residual activity, RPS6KA6” value in assay [3] (assay conc. 1.0E-06 M) and in assay [3] (assay conc. 1.0E-07 M) were 94 % of control and 103 % of control, respectively. The entries for the “Residual activity, S6K” value in assay [7] (assay conc. 1.0E-06 M) and in assay [7] (assay conc. 1.0E-07 M) were 123 % of control and 135 % of control, respectively.
